{"source": "PubChem BioAssay AID1845197", "about": "(Molecular Pharmacology Branch, DTP, NCI, 2023)", "system": "349418-098-R tumor spheroid viability", "test": "Anticancer human tumor 349418-098-R patient-derived lung adenocarcinoma cell line growth inhibition", "conditions": "spheroids with HUVEC and MSC; for viability, T/C: stronger effect = lower value", "outline": "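Complex spheroids of malignant cells with endothelial cells and mesenchymal stem cells; agents alone or combined, from near clinical Cmax (or 10 microM if unknown) down in half-log steps, 0.25% DMSO final.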", "note": "pIC50: −log10 of the molar value. Several values for one entry are separate records, joined by “and”; a condition that tells them apart may be missing. Equal values may be shown once.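 Note: spheroids exposed to compound for 7 days before measurement.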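 Throughout, for viability, T/C: percent of vehicle control viability with 100% = DMSO-treated spheroids.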", "data": [{"smiles": "Cc1cc(C)c(CNC(=O)c2cc(-c3ccc(CN4CCOCC4)cc3)cc3c2cnn3C2CCCC2)c(=O)[nH]1", "note": "+ Cn1nnc2c(C(N)=O)ncn2c1=O", "values": [{"measurement": "pIC50", "setting": "curve of first compound, second compound 1 µM", "result": 5.18}, {"measurement": "pIC50", "setting": "curve of first compound, second compound 3.16 µM", "result": 5.13}, {"measurement": "pIC50", "setting": "curve of first compound, second compound 10 µM", "result": 5.12}, {"measurement": "pIC50", "setting": "curve of first compound, second compound 31.6 µM", "result": 5.20}, {"measurement": "pIC50", "setting": "curve of first compound, second compound 100 µM", "result": 5.20}, {"measurement": "viability, T/C", "setting": "second compound 1 µM, first compound 0.0316 µM", "result": 98, "unit": "%"}, {"measurement": "viability, T/C", "setting": "second compound 1 µM, first compound 0.1 µM", "result": 97.6, "unit": "%"}, {"measurement": "viability, T/C", "setting": "second compound 1 µM, first compound 0.316 µM", "result": 103, "unit": "%"}, {"measurement": "viability, T/C", "setting": "second compound 1 µM, first compound 1 µM", "result": 97.1, "unit": "%"}, {"measurement": "viability, T/C", "setting": "second compound 1 µM, first compound 3.16 µM", "result": 91.6, "unit": "%"}, {"measurement": "viability, T/C", "setting": "second compound 1 µM, first compound 10 µM", "result": 25.8, "unit": "%"}, {"measurement": "viability, T/C", "setting": "second compound 3.16 µM, first compound 0.0316 µM", "result": 104, "unit": "%"}, {"measurement": "viability, T/C", "setting": "second compound 3.16 µM, first compound 0.1 µM", "result": 102, "unit": "%"}, {"measurement": "viability, T/C", "setting": "second compound 3.16 µM, first compound 0.316 µM", "result": 103, "unit": "%"}, {"measurement": "viability, T/C", "setting": "second compound 3.16 µM, first compound 1 µM", "result": 104, "unit": "%"}, {"measurement": "viability, T/C", "setting": "second compound 3.16 µM, first compound 3.16 µM", "result": 92.6, "unit": "%"}, {"measurement": "viability, T/C", "setting": "second compound 3.16 µM, first compound 10 µM", "result": 35.2, "unit": "%"}, {"measurement": "viability, T/C", "setting": "second compound 10 µM, first compound 0.0316 µM", "result": 97.4, "unit": "%"}, {"measurement": "viability, T/C", "setting": "second compound 10 µM, first compound 0.1 µM", "result": 106, "unit": "%"}, {"measurement": "viability, T/C", "setting": "second compound 10 µM, first compound 0.316 µM", "result": 98.7, "unit": "%"}, {"measurement": "viability, T/C", "setting": "second compound 10 µM, first compound 1 µM", "result": 102, "unit": "%"}, {"measurement": "viability, T/C", "setting": "second compound 10 µM, first compound 3.16 µM", "result": 94.3, "unit": "%"}, {"measurement": "viability, T/C", "setting": "second compound 10 µM, first compound 10 µM", "result": 35.8, "unit": "%"}, {"measurement": "viability, T/C", "setting": "second compound 31.6 µM, first compound 0.0316 µM", "result": 99.2, "unit": "%"}, {"measurement": "viability, T/C", "setting": "second compound 31.6 µM, first compound 0.1 µM", "result": 104, "unit": "%"}, {"measurement": "viability, T/C", "setting": "second compound 31.6 µM, first compound 0.316 µM", "result": 99.2, "unit": "%"}, {"measurement": "viability, T/C", "setting": "second compound 31.6 µM, first compound 1 µM", "result": 105, "unit": "%"}, {"measurement": "viability, T/C", "setting": "second compound 31.6 µM, first compound 3.16 µM", "result": 91.6, "unit": "%"}, {"measurement": "viability, T/C", "setting": "second compound 31.6 µM, first compound 10 µM", "result": 20.5, "unit": "%"}, {"measurement": "viability, T/C", "setting": "second compound 100 µM, first compound 0.0316 µM", "result": 104, "unit": "%"}, {"measurement": "viability, T/C", "setting": "second compound 100 µM, first compound 0.1 µM", "result": 105, "unit": "%"}, {"measurement": "viability, T/C", "setting": "second compound 100 µM, first compound 0.316 µM", "result": 103, "unit": "%"}, {"measurement": "viability, T/C", "setting": "second compound 100 µM, first compound 1 µM", "result": 97.2, "unit": "%"}, {"measurement": "viability, T/C", "setting": "second compound 100 µM, first compound 3.16 µM", "result": 91.6, "unit": "%"}, {"measurement": "viability, T/C", "setting": "second compound 100 µM, first compound 10 µM", "result": 21.5, "unit": "%"}]}, {"smiles": "CNCc1ccc(-c2cc(-c3nc(-c4ccc(S(=O)(=O)C(C)C)cc4)cnc3N)on2)cc1", "note": "+ CC[C@@]1(O)C(=O)OCc2c1cc1n(c2=O)Cc2cc3c(CN(C)C)c(O)ccc3nc2-1", "values": [{"measurement": "pIC50", "setting": "curve of first compound, second compound 0.003 µM", "result": 6.69}, {"measurement": "pIC50", "setting": "curve of first compound, second compound 0.00949 µM", "result": 6.80}, {"measurement": "pIC50", "setting": "curve of first compound, second compound 0.03 µM", "result": 6.83}, {"measurement": "pIC50", "setting": "curve of first compound, second compound 0.0949 µM", "result": "> 8.02"}, {"measurement": "pIC50", "setting": "curve of first compound, second compound 0.3 µM", "result": "> 8.02"}, {"measurement": "viability, T/C", "setting": "second compound 0.003 µM, first compound 0.00949 µM", "result": 106, "unit": "%"}, {"measurement": "viability, T/C", "setting": "second compound 0.003 µM, first compound 0.03 µM", "result": 96.8, "unit": "%"}, {"measurement": "viability, T/C", "setting": "second compound 0.003 µM, first compound 0.0949 µM", "result": 95, "unit": "%"}, {"measurement": "viability, T/C", "setting": "second compound 0.003 µM, first compound 0.3 µM", "result": 26.4, "unit": "%"}, {"measurement": "viability, T/C", "setting": "second compound 0.003 µM, first compound 0.949 µM", "result": 6.42, "unit": "%"}, {"measurement": "viability, T/C", "setting": "second compound 0.003 µM, first compound 3 µM", "result": 1.25, "unit": "%"}, {"measurement": "viability, T/C", "setting": "second compound 0.00949 µM, first compound 0.00949 µM", "result": 103, "unit": "%"}, {"measurement": "viability, T/C", "setting": "second compound 0.00949 µM, first compound 0.03 µM", "result": 96.3, "unit": "%"}, {"measurement": "viability, T/C", "setting": "second compound 0.00949 µM, first compound 0.0949 µM", "result": 78.2, "unit": "%"}, {"measurement": "viability, T/C", "setting": "second compound 0.00949 µM, first compound 0.3 µM", "result": 15.9, "unit": "%"}, {"measurement": "viability, T/C", "setting": "second compound 0.00949 µM, first compound 0.949 µM", "result": 6.27, "unit": "%"}, {"measurement": "viability, T/C", "setting": "second compound 0.00949 µM, first compound 3 µM", "result": 0.63, "unit": "%"}, {"measurement": "viability, T/C", "setting": "second compound 0.03 µM, first compound 0.00949 µM", "result": 89.1, "unit": "%"}, {"measurement": "viability, T/C", "setting": "second compound 0.03 µM, first compound 0.03 µM", "result": 83.9, "unit": "%"}, {"measurement": "viability, T/C", "setting": "second compound 0.03 µM, first compound 0.0949 µM", "result": 74.5, "unit": "%"}, {"measurement": "viability, T/C", "setting": "second compound 0.03 µM, first compound 0.3 µM", "result": 10.1, "unit": "%"}, {"measurement": "viability, T/C", "setting": "second compound 0.03 µM, first compound 0.949 µM", "result": 3.96, "unit": "%"}, {"measurement": "viability, T/C", "setting": "second compound 0.03 µM, first compound 3 µM", "result": 0.78, "unit": "%"}, {"measurement": "viability, T/C", "setting": "second compound 0.0949 µM, first compound 0.00949 µM", "result": 25.5, "unit": "%"}, {"measurement": "viability, T/C", "setting": "second compound 0.0949 µM, first compound 0.03 µM", "result": 22, "unit": "%"}, {"measurement": "viability, T/C", "setting": "second compound 0.0949 µM, first compound 0.0949 µM", "result": 12.8, "unit": "%"}, {"measurement": "viability, T/C", "setting": "second compound 0.0949 µM, first compound 0.3 µM", "result": 4.56, "unit": "%"}, {"measurement": "viability, T/C", "setting": "second compound 0.0949 µM, first compound 0.949 µM", "result": 3.43, "unit": "%"}, {"measurement": "viability, T/C", "setting": "second compound 0.0949 µM, first compound 3 µM", "result": 0.31, "unit": "%"}, {"measurement": "viability, T/C", "setting": "second compound 0.3 µM, first compound 0.00949 µM", "result": 3.32, "unit": "%"}, {"measurement": "viability, T/C", "setting": "second compound 0.3 µM, first compound 0.03 µM", "result": 4.32, "unit": "%"}, {"measurement": "viability, T/C", "setting": "second compound 0.3 µM, first compound 0.0949 µM", "result": 3.68, "unit": "%"}, {"measurement": "viability, T/C", "setting": "second compound 0.3 µM, first compound 0.3 µM", "result": 3.02, "unit": "%"}, {"measurement": "viability, T/C", "setting": "second compound 0.3 µM, first compound 0.949 µM", "result": 2.18, "unit": "%"}, {"measurement": "viability, T/C", "setting": "second compound 0.3 µM, first compound 3 µM", "result": 0.36, "unit": "%"}]}, {"smiles": "Cc1sc2c(c1C)C(c1ccc(Cl)cc1)=NC(CC(=O)Nc1ccc(O)cc1)c1nnc(C)n1-2", "note": "(configuration not stated)", "values": [{"measurement": "viability, T/C", "setting": "compound 0.00949 µM", "result": "99.1% and 96.4% and 100%"}, {"measurement": "viability, T/C", "setting": "compound 0.03 µM", "result": "101% and 90.4% and 111%"}, {"measurement": "viability, T/C", "setting": "compound 0.0949 µM", "result": "73% and 49% and 66.3%"}, {"measurement": "viability, T/C", "setting": "compound 0.3 µM", "result": "13.4% and 14.2% and 11.2%"}, {"measurement": "viability, T/C", "setting": "compound 0.949 µM", "result": "1.66% and 1.1% and 1.46%"}, {"measurement": "viability, T/C", "setting": "compound 3 µM", "result": "0.54% and 0.67% and 1%"}, {"measurement": "pIC50", "setting": "curve of compound", "result": "6.83 and 7.02 and 6.87"}]}]}
